Measurements reported in patent publication US12404262B2 (priority 2021, dated 2025).

Details: 1.0% DMSO, 24-hour incubation at ambient temperature, maximum theoretical 100 μM; for pH 2 solubility: 0.1N HCl, first value of the cell; for pH 7 solubility: 1×PBS buffer (pH 7.4), second value of the cell

Compound | pH 2 solubility | pH 7 solubility
CC(C)(C#Cc1ccc(-c2ccc(Cl)c3c(N(C(=O)C(=O)N[C@@H](CC(=O)O)C(=O)O)S(C)(=O)=O)nn(CC(F)(F)F)c23)c([C@H](Cc2cc(F)cc(F)c2)NC(=O)Cn2nc(C(F)(F)F)c3c2C(F)(F)[C@@H]2C[C@H]32)n1)S(C)(=O)=O [Compound 12, (2-(N-(4-chloro-7-(2-((S)-1-(2-((3bS,4aR)-5,5-difluoro-3-(trifluoromethyl)-3b,4,4a,5-tetrahydro-1H-cyclopropa[3,4]cyclopenta[1,2-c]pyrazol-1-yl)acetamido)-2-(3,5-difluorophenyl)ethyl)-6-(3-methyl-3-(methylsulfonyl)but-1-yn-1-yl)pyridin-3-yl)-1-(2,2,2-trifluoroethyl)-1H-indazol-3-yl)methylsulfonamido)-2-oxoacetyl)-L-aspartic acid] | 10/10 μM | 10/10 μM
CCOC(=O)C(=O)N(c1nn(CC(F)(F)F)c2c(-c3ccc(C#CC(C)(C)S(C)(=O)=O)nc3[C@H](Cc3cc(F)cc(F)c3)NC(=O)Cn3nc(C(F)(F)F)c4c3C(F)(F)[C@@H]3C[C@H]43)ccc(Cl)c12)S(C)(=O)=O [Compound 14, ethyl 2-(N-(4-chloro-7-(2-((S)-1-(2-((3bS,4aR)-5,5-difluoro-3-(trifluoromethyl)-3b,4,4a,5-tetrahydro-1H-cyclopropa[3,4]cyclopenta[1,2-c]pyrazol-1-yl)acetamido)-2-(3,5-difluorophenyl)ethyl)-6-(3-methyl-3-(methylsulfonyl)but-1-yn-1-yl)pyridin-3-yl)-1-(2,2,2-trifluoroethyl)-1H-indazol-3-yl)methylsulfonamido)-2-oxoacetate] | 1/1 μM | 1/1 μM
COC(=O)C(=O)N(c1nn(CC(F)(F)F)c2c(-c3ccc(C#CC(C)(C)S(C)(=O)=O)nc3[C@H](Cc3cc(F)cc(F)c3)NC(=O)Cn3nc(C(F)(F)F)c4c3C(F)(F)[C@@H]3C[C@H]43)ccc(Cl)c12)S(C)(=O)=O [Compound 15, methyl 2-(N-(4-chloro-7-(2-((S)-1-(2-((3bS,4aR)-5,5-difluoro-3-(trifluoromethyl)-3b,4,4a,5-tetrahydro-1H-cyclopropa[3,4]cyclopenta[1,2-c]pyrazol-1-yl)acetamido)-2-(3,5-difluorophenyl)ethyl)-6-(3-methyl-3-(methylsulfonyl)but-1-yn-1-yl)pyridin-3-yl)-1-(2,2,2-trifluoroethyl)-1H-indazol-3-yl)methylsulfonamido)-2-oxoacetate] | 1/1 μM | 1/1 μM
CC(C)(C#Cc1ccc(-c2ccc(Cl)c3c(N(CCO)S(C)(=O)=O)nn(CC(F)(F)F)c23)c([C@H](Cc2cc(F)cc(F)c2)NC(=O)Cn2nc(C(F)(F)F)c3c2C(F)(F)[C@@H]2C[C@H]32)n1)S(C)(=O)=O [Compound 18, N—((S)-1-(3-(4-chloro-3-(N-(2-hydroxyethyl)methylsulfonamido)-1-(2,2,2-trifluoroethyl)-1H-indazol-7-yl)-6-(3-methyl-3-(methylsulfonyl)but-1-yn-1-yl)pyridin-2-yl)-2-(3,5-difluorophenyl)ethyl)-2-((3bS,4aR)-5,5-difluoro-3-(trifluoromethyl)-3b,4,4a,5-tetrahydro-1H-cyclopropa[3,4]cyclopenta[1,2-c]pyrazol-1-yl)acetamide] | 1/1 μM | 1/1 μM
CC(C)(C#Cc1ccc(-c2ccc(Cl)c3c(N(CCOP(=O)(O)O)S(C)(=O)=O)nn(CC(F)(F)F)c23)c([C@H](Cc2cc(F)cc(F)c2)NC(=O)Cn2nc(C(F)(F)F)c3c2C(F)(F)[C@@H]2C[C@H]32)n1)S(C)(=O)=O [Compound 19, 2-(N-(4-chloro-7-(2-((S)-1-(2-((3bS,4aR)-5,5-difluoro-3-(trifluoromethyl)-3b,4,4a,5-tetrahydro-1H-cyclopropa[3,4]cyclopenta[1,2-c]pyrazol-1-yl)acetamido)-2-(3,5-difluorophenyl)ethyl)-6-(3-methyl-3-(methylsulfonyl)but-1-yn-1-yl)pyridin-3-yl)-1-(2,2,2-trifluoroethyl)-1H-indazol-3-yl)methylsulfonamido)ethyl dihydrogen phosphate] | 1 μM | 100 μM
CC(C)(C#Cc1ccc(-c2ccc(Cl)c3c(N(COC(=O)CCP(=O)(O)O)S(C)(=O)=O)nn(CC(F)(F)F)c23)c([C@H](Cc2cc(F)cc(F)c2)NC(=O)Cn2nc(C(F)(F)F)c3c2C(F)(F)[C@@H]2C[C@H]32)n1)S(C)(=O)=O [Compound 21, (3-((N-(4-chloro-7-(2-((S)-1-(2-((3bS,4aR)-5,5-difluoro-3-(trifluoromethyl)-3b,4,4a,5-tetrahydro-1H-cyclopropa[3,4]cyclopenta[1,2-c]pyrazol-1-yl)acetamido)-2-(3,5-difluorophenyl)ethyl)-6-(3-methyl-3-(methylsulfonyl)but-1-yn-1-yl)pyridin-3-yl)-1-(2,2,2-trifluoroethyl)-1H-indazol-3-yl)methylsulfonamido)methoxy)-3-oxopropyl)phosphonic acid] | 86 μM | 1 μM
C[C@@H](C(=O)OCN(c1nn(CC(F)(F)F)c2c(-c3ccc(C#CC(C)(C)S(C)(=O)=O)nc3[C@H](Cc3cc(F)cc(F)c3)NC(=O)Cn3nc(C(F)(F)F)c4c3C(F)(F)[C@@H]3C[C@H]43)ccc(Cl)c12)S(C)(=O)=O)N(C)C [Compound 22, (N-(4-chloro-7-(2-((S)-1-(2-((3bS,4aR)-5,5-difluoro-3-(trifluoromethyl)-3b,4,4a,5-tetrahydro-1H-cyclopropa[3,4]cyclopenta[1,2-c]pyrazol-1-yl)acetamido)-2-(3,5-difluorophenyl)ethyl)-6-(3-methyl-3-(methylsulfonyl)but-1-yn-1-yl)pyridin-3-yl)-1-(2,2,2-trifluoroethyl)-1H-indazol-3-yl)methylsulfonamido)methyl dimethyl-L-alaninate] | 45 μM | 3 μM
CC(C)(C#Cc1ccc(-c2ccc(Cl)c3c(N(COP(=O)(O)O)S(C)(=O)=O)nn(CC(F)(F)F)c23)c([C@H](Cc2cc(F)cc(F)c2)NC(=O)Cn2nc(C(F)(F)F)c3c2C(F)(F)[C@@H]2C[C@H]32)n1)S(C)(=O)=O [Compound 23, (N-(4-chloro-7-(2-((S)-1-(2-((3bS,4aR)-5,5-difluoro-3-(trifluoromethyl)-3b,4,4a,5-tetrahydro-1H-cyclopropa[3,4]cyclopenta[1,2-c]pyrazol-1-yl)acetamido)-2-(3,5-difluorophenyl)ethyl)-6-(3-methyl-3-(methylsulfonyl)but-1-yn-1-yl)pyridin-3-yl)-1-(2,2,2-trifluoroethyl)-1H-indazol-3-yl)methylsulfonamido)methyl dihydrogen phosphate] | 6 μM | 100 μM
CC(C)(CO)C(=O)OCN(c1nn(CC(F)(F)F)c2c(-c3ccc(C#CC(C)(C)S(C)(=O)=O)nc3[C@H](Cc3cc(F)cc(F)c3)NC(=O)Cn3nc(C(F)(F)F)c4c3C(F)(F)[C@@H]3C[C@H]43)ccc(Cl)c12)S(C)(=O)=O [Compound 24, (N-(4-chloro-7-(2-((S)-1-(2-((3bS,4aR)-5,5-difluoro-3-(trifluoromethyl)-3b,4,4a,5-tetrahydro-1H-cyclopropa[3,4]cyclopenta[1,2-c]pyrazol-1-yl)acetamido)-2-(3,5-difluorophenyl)ethyl)-6-(3-methyl-3-(methylsulfonyl)but-1-yn-1-yl)pyridin-3-yl)-1-(2,2,2-trifluoroethyl)-1H-indazol-3-yl)methylsulfonamido)methyl 3-hydroxy-2,2-dimethylpropanoate] | 1/1 μM | 1/1 μM
CC(C)(COP(=O)(O)O)C(=O)OCN(c1nn(CC(F)(F)F)c2c(-c3ccc(C#CC(C)(C)S(C)(=O)=O)nc3[C@H](Cc3cc(F)cc(F)c3)NC(=O)Cn3nc(C(F)(F)F)c4c3C(F)(F)[C@@H]3C[C@H]43)ccc(Cl)c12)S(C)(=O)=O [Compound 25, (N-(4-chloro-7-(2-((S)-1-(2-((3bS,4aR)-5,5-difluoro-3-(trifluoromethyl)-3b,4,4a,5-tetrahydro-1H-cyclopropa[3,4]cyclopenta[1,2-c]pyrazol-1-yl)acetamido)-2-(3,5-difluorophenyl)ethyl)-6-(3-methyl-3-(methylsulfonyl)but-1-yn-1-yl)pyridin-3-yl)-1-(2,2,2-trifluoroethyl)-1H-indazol-3-yl)methylsulfonamido)methyl 2,2-dimethyl-3-(phosphonooxy)propanoate] | 1 μM | 73 μM
C[C@H](N)C(=O)OCN(c1nn(CC(F)(F)F)c2c(-c3ccc(C#CC(C)(C)S(C)(=O)=O)nc3[C@H](Cc3cc(F)cc(F)c3)NC(=O)Cn3nc(C(F)(F)F)c4c3C(F)(F)[C@@H]3C[C@H]43)ccc(Cl)c12)S(C)(=O)=O [Compound 27, (N-(4-chloro-7-(2-((S)-1-(2-((3bS,4aR)-5,5-difluoro-3-(trifluoromethyl)-3b,4,4a,5-tetrahydro-1H-cyclopropa[3,4]cyclopenta[1,2-c]pyrazol-1-yl)acetamido)-2-(3,5-difluorophenyl)ethyl)-6-(3-methyl-3-(methylsulfonyl)but-1-yn-1-yl)pyridin-3-yl)-1-(2,2,2-trifluoroethyl)-1H-indazol-3-yl)methylsulfonamido)methyl L-alaninate] | 20 μM | 2 μM
CC(C)[C@H](N)C(=O)OCN(c1nn(CC(F)(F)F)c2c(-c3ccc(C#CC(C)(C)S(C)(=O)=O)nc3[C@H](Cc3cc(F)cc(F)c3)NC(=O)Cn3nc(C(F)(F)F)c4c3C(F)(F)[C@@H]3C[C@H]43)ccc(Cl)c12)S(C)(=O)=O [Compound 28, (N-(4-chloro-7-(2-((S)-1-(2-((3bS,4aR)-5,5-difluoro-3-(trifluoromethyl)-3b,4,4a,5-tetrahydro-1H-cyclopropa[3,4]cyclopenta[1,2-c]pyrazol-1-yl)acetamido)-2-(3,5-difluorophenyl)ethyl)-6-(3-methyl-3-(methylsulfonyl)but-1-yn-1-yl)pyridin-3-yl)-1-(2,2,2-trifluoroethyl)-1H-indazol-3-yl)methylsulfonamido)methyl L-valinate] | 29 μM | 1 μM
